Measurements published in patent US20170226059A1, “APOE4-TARGETED THERAPUTICS THAT INCREASE SIRT1” (The Regents of the University of California, priority 2014, published 2017).
Where two headings read alike, the source gives them in different places.

Columns and labels:
SirT1 = assay: Primary AlphaLISA screening assay: SirT1 levels in N2a cells stably transfected with ApoE4; format: cell-based, mouse; details: for Primary Assay (SrT1 increase): primary screening assay, ApoE4 cells
Description: We have developed a primary screening assay that is HTS formatable; the assay would be done on N2a cells (mouse neuroblastoma cells) that have been stably transfected with ApoE3 and ApoE4. The cells are treated with drugs and the SirT1 levels are measured using the AlphaLISA assay that we have developed, e.g., as shown in FIG. 11. The illustrated AlphaLISA uses an antibody (Ab, E104, Abcam) that binds the C-terminus of SirT1 and is on the acceptor bead. The N-terminal Ab (D1D7, Abcam) is biotinylated and binds to the donor bead. For the primary assay the Neuro-2a (N2a) cells stably expressing similar levels of hApoE3 or hApoE4 are used. The primary assay can be done in triplicate. The N2a cells have reasonably good endogenous levels of APP thus avoiding the necessity of APP transfection. In general, for the assays N2a cells stably transfected with hApoE3 (E3) or hApoE4 (E4) are plated, e.g., at […] in 384-well plates in […] of growth medium and allowed to attached for 3 h. The E4 cells are treated with compounds overnight, E3 cells are controls. The following day, growth medium is removed and cells are lysed with AlphaLysis buffer complemented with protease and phosphatase inhibitors.
Then, the AlphaLISA assay is run and molecules that can increase or reverse the SirT1 levels in ApoE4 cells are identified. A preliminary estimate, based on the initial screening which yielded two reproducible “hits” from a set of 1000 compounds, which is a 0.2% hit-rate. […] Our initial screening was done on a small library of about 1000 compounds. The assay is translatable to a HTS format.

p-tau = assay: tau phosphorylation (p-tau) in cells transfected with ApoE4; format: cell-based
Description: sAPPα or sAPPβ secreted into the cellular media are determined with sAPPα or sAPPβ AlphaLISA immunoassay kits (PerkinElmer) according to the manufacturer's protocol with some modifications. The standards, blanks, and media are diluted with the buffer provided in the kit and added to the plate. During the first incubation step, the analyte is captured either by an antibody recognizing the α-secretase cleavage site at sAPPα C-terminus (clone 2B3) or the sAPPβ C-terminus, and then by a second biotin-labeled antibody specific to the N-terminal common domain of sAPP. In the second incubation step, the biotinylated anti-analyte antibody is bound to the streptavidin-coated donor beads. At the end of this reaction, the plates are read on an EnSpire Alpha 2390 multilabel plate reader equipped with the AlphaScreen module. The Aβ1-42 or 1-40 are determined from media and/or cells using Life Science's sandwich ELISA kit. The levels of Aβ are quantified from a standard curve and normalized to total cellular protein (Spilman et al. (2014) Brain Res. 1551: 25-44; Theendakara et al. (2013) Proc. Natl. Acad. Sci. USA, 10(45): 18303-18308), Tau and p-tau are determined from cell extracts by a solid phase double antibody sandwich ELISA technology designed for quantitative determination of phospho-tau (Antibodies-Online). […]

p-APP = assay: APP phosphorylation (p-APP) in cells transfected with ApoE4; format: cell-based
Description: (§1) sAPPα or sAPPβ secreted into the cellular media are determined with sAPPα or sAPPβ AlphaLISA immunoassay kits (PerkinElmer) according to the manufacturer's protocol with some modifications. The standards, blanks, and media are diluted with the buffer provided in the kit and added to the plate. During the first incubation step, the analyte is captured either by an antibody recognizing the α-secretase cleavage site at sAPPα C-terminus (clone 2B3) or the sAPPβ C-terminus, and then by a second biotin-labeled antibody specific to the N-terminal common domain of sAPP. In the second incubation step, the biotinylated anti-analyte antibody is bound to the streptavidin-coated donor beads. At the end of this reaction, the plates are read on an EnSpire Alpha 2390 multilabel plate reader equipped with the AlphaScreen module. The Aβ1-42 or 1-40 are determined from media and/or cells using Life Science's sandwich ELISA kit. The levels of Aβ are quantified from a standard curve and normalized to total cellular protein (Spilman et al. (2014) Brain Res. 1551: 25-44; Theendakara et al. (2013) Proc. Natl. Acad. Sci. USA, 10(45): 18303-18308), Tau and p-tau are determined from cell extracts by a solid phase double antibody sandwich ELISA technology designed for quantitative determination of phospho-tau (Antibodies-Online). APP and p-APP are determined by the DuoSet IC ELISA (R&D Systems) to measure phosphorylated APP in cell lysates. An immobilized capture antibody specific for APP binds both phosphorylated and unphosphorylated APP. After unbound material is washed away, a biotinylated detection antibody is used to detect either APP or phosphor-APP utilizing a standard HRP format. Using these assay procedures we notice a significant increase in p-tau and p-APP levels in ApoE4-transfected cells. It can be determined whether the primary “hits” reverse the ApoE4-mediated APP-Thr phosphorylation and tau-phosphorylation.

sAPPα = sAPPα levels in the presence of ApoE4 (AlphaLISA); format: cell-based; details: in the presence of ApoE4 (ApoE4-transfected cells)
Description: as §1

obese mice = details: cited from earlier work

Row | Molecule | Primary Assay (SrT1 increase) (SirT1) | further results
1 | CC(C)C(N)C(=O)OC(C)(C)Cc1ccc(Cl)cc1 (stereo not drawn) [Compound 8, 1-(4-chlorophenyl)-2-methylpropan-2-yl 2-amino-3-methylbutanoate] | II (activity II 10-30%) | 
2 | CC(C)CC(=O)Nc1[nH]nc2c1CN(C(=O)C1CCN(C)CC1)C2(C)C [PHA793887] |  | p-tau (p-tau): attenuated; APP phosphorylation (p-APP) (p-APP): attenuated
3 | Clc1cccc(Cl)c1N=C1NCCN1 [Compound A02, clonidine] |  | SirT1 levels (dose-response) (SirT1; N2A neuroblastoma cells stably transfected with ApoE4): flat
4 | CC(N)C(=O)OC(C)(C)Cc1ccc(F)c(F)c1 (stereo not drawn) [Compound 3, 1-(3,4-difluorophenyl)-2-methylpropan-2-yl 2-aminopropanoate] | III (activity III > 30 SrT1 increase) | 
5 | Cc1c[nH]c(-c2cnc(NCCNc3ccc(C#N)cn3)nc2-c2ccc(Cl)cc2Cl)n1 [CHIR99021] |  | APP phosphorylation (p-APP) (p-APP): reversed; APP phosphorylation (p-APP) (p-APP; listed as CHIR): reduces APP phosphorylation; sAPPα levels (sAPPα): reversed the reduction in sAPPα; sAPPα levels (sAPPα; listed as CHIR): restores sAPPα levels
6 | Cc1ccc(CC(C)(C)OC(=O)C(C)N)cc1 (stereo not drawn) [Compound 6, 2-methyl-1-p-tolylpropan-2-yl 2-aminopropanoate] | II (activity II 10-30%) | 
7 | CC(C)(Cc1ccc(Cl)cc1)OC(=O)C(N)CCCCN (stereo not drawn) [Compound 13, 1-(4-chlorophenyl)-2-methylpropan-2-yl 2,6-diaminohexanoate] | II (activity II 10-30%) | 
8 | CC(N)C(=O)OC(C)(C)Cc1ccccc1 (stereo not drawn) [Compound 1, 2-methyl-1-phenylpropan-2-yl 2-aminopropanoate] | II (activity II 10-30%) | 
9 | CC(C)(Cc1ccc(Cl)cc1)OC(=O)C1CCCCN1 (stereo not drawn) [Compound 19, 1-(4-chlorophenyl)-2-methylpropan-2-yl piperidine-2-carboxylate] | II (activity II 10-30%) | 
10 | 2-amino-N-(1-(4-chlorophenyl)-2-methylpropan-2-yl)propanamide [Compound 15] | III (activity III > 30 SrT1 increase) | 
11 | CC(C)(Cc1ccc(Cl)cc1)OC(=O)CN [Compound 7, 1-(4-chlorophenyl)-2-methylpropan-2-yl 2-aminoethanoate] | II (activity II 10-30%) | 
12 | CC(C)(Cc1ccc(F)c(F)c1)NC(=O)C1CCCN1 (stereo not drawn) [Compound 24, N-(1-(3,4-difluorophenyl)-2-methylpropan-2-yl)pyrrolidine-2-carboxamide] | II (activity II 10-30%) | 
13 | O=C(Nc1ccccc1-c1cn2c(CN3CCNCC3)csc2n1)c1cnc2ccccc2n1 [SRT1720] |  | extension of lifespan (obese mice): 44%
14 | CC(N)C(=O)OC(C)(C)CCc1ccc(Cl)cc1 (stereo not drawn) [Compound 12, 4-(4-chlorophenyl)-2-methylbutan-2-yl 2-aminopropanoate] | II (activity II 10-30%) | 
15 | CC(C)(Cc1ccc(Cl)cc1)OC(=O)CCN [Compound 17, 1-(4-chlorophenyl)-2-methylpropan-2-yl 3-aminopropanoate] | I (activity I < 10%) | 
16 | CCC(C)C(N)C(=O)OC(C)(C)Cc1ccc(Cl)cc1 (stereo not drawn) [Compound 11, 1-(4-chlorophenyl)-2-methylpropan-2-yl 2-amino-3-methylpentanoate] | II (activity II 10-30%) | 
17 | CC(C)CC(N)C(=O)OC(C)(C)Cc1ccc(Cl)cc1 (stereo not drawn) [Compound 5, 1-(4-chlorophenyl)-2-methylpropan-2-yl 2-amino-4-methylpentanoate] | I (activity I < 10%) | 
18 | CC(N)C(=O)NC(C)(C)Cc1ccc(F)c(F)c1 (stereo not drawn) [Compound 22, 2-amino-N-(1-(3,4-difluorophenyl)-2-methylpropan-2-yl)propanamide] | III (activity III > 30 SrT1 increase) | 
19 | CNCCC(Oc1ccc(C(F)(F)F)cc1)c1ccccc1 (stereo not drawn) [Prozac] |  | effect on SirT1 levels in initial screen (SirT1; initial screen of about 1000 compounds): no affect on SirT1 levels
20 | CC(N)C(=O)OC(C)(C)Cc1ccc(F)cc1 (stereo not drawn) [Compound 4, 1-(4-fluorophenyl)-2-methylpropan-2-yl 2-aminopropanoate] | II (activity II 10-30%) | 
21 | C[C@H](N)CC(=O)OC(C)(C)Cc1ccc(Cl)cc1 [Compound 18, (S)-1-(4-chlorophenyl)-2-methylpropan-2-yl 3-aminobutanoate] | I (activity I < 10%) | 
22 | CNC(C)C(=O)OC(C)(C)Cc1ccc(Cl)cc1 (stereo not drawn) [Compound 23, 1-(4-chlorophenyl)-2-methylpropan-2-yl 2-(methylamino)propanoate] | I (activity I < 10%) | 
23 | CC(C)(Cc1ccc(Cl)cc1)OC(=O)C(N)Cc1ccccc1 (stereo not drawn) [Compound 2, 1-(4-chlorophenyl)-2-methylpropan-2-yl 2-amino-3-phenylpropanoate] | I (activity I < 10%) | 
24 | CC(N)C(=O)OC1(Cc2ccc(Cl)cc2)CCCCC1 (stereo not drawn) [Compound 10, 1-(4-chlorobenzyl)cyclohexyl 2-aminopropanoate] | I (activity I < 10%) | 
25 | CC(C)(Cc1ccc(Cl)cc1)OC(=O)C(N)CO (stereo not drawn) [Compound 16, 1-(4-chlorophenyl)-2-methylpropan-2-yl 2-amino-3-hydroxypropanoate] | II (activity II 10-30%) | 
26 | 1-(3,4-difluorophenyl)-2-methylpropan-2-yl 2-aminoethanoate [Compound 21] | II (activity II 10-30%) | 
27 | 1-(4-chlorophenyl)-2-methylpropan-2-yl pyrrolidine-2-carboxylate [Compound 20] | I (activity I < 10%) | 
28 | CC(N)C(=O)OC(C)(C)Cc1cc(F)cc(F)c1 (stereo not drawn) [Compound 14, 1-(3,5-difluorophenyl)-2-methylpropan-2-yl 2-aminopropanoate] | III (activity III > 30 SrT1 increase) | 
29 | CC(N)C(=O)OC1(Cc2ccc(Cl)cc2)CCC1 (stereo not drawn) [Compound 9, 1-(4-chlorobenzyl)cyclobutyl 2-aminopropanoate] | I (activity I < 10%) | 
